Laboratory results: patent US20200231638A1, “STABILIZED ANTI-MICROBIAL PEPTIDES” (priority 2015, published 2020)
Bridge positions count the residues as written; N and C are the ends. Square brackets hold non-standard residues; d marks the D form. Peptide text beside a SMILES is read from it. R8 = C=CCCCCCC[C@@](C)(N)C(=O)O; S5 = C=CCCC[C@](C)(N)C(=O)O; Nle = CCCC[C@H](N)C(=O)O

Columns and labels:
E. coli = assay type: cell-based, Escherichia coli
Procedure: (§1) Antimicrobial Activity Assay:
(§2) The following microbroth dilution protocol was adapted to determine the minimum inhibitory concentration (MIC) of each peptide. First, Mueller-Hinton broth (MHB) was passed through an anion exchange column to remove polyanionic species and generate refined MHB. […] Briefly, bacterial cells was grown overnight in refined MHB at 37° C. and then diluted and allowed to grow again for several hours. Serial dilutions of peptide stocks in water (10 μl) were prepared using clear round-bottom polypropylene 96-well plates. Then 90 μl of bacteria in refined MHB was added to give a final inoculum of 5×10^5 CFU/ml. The plates were then covered with porous tape to reduce evaporation, and incubated for 20-24 hours at 37° C. The MIC is the minimum peptide concentration at which no visible growth was observed.

B. cereus = assay type: cell-based, Bacillus cereus
Procedure: as §1, §2

S. aureus = assay type: cell-based, Staphylococcus aureus
Procedure: as §1, §2

P. aeruginosa = assay type: cell-based, Pseudomonas aeruginosa
Procedure: as §1, §2

human red blood cells = assay type: cell-based; details: red cells of human, 1 h, 25
Procedure: FIG. 5 is a series of line graphs depicting the hemolytic activity of magainin II and stapled analogues. Peptides were incubated with 1% (v/v) human red blood cells in phosphate-buffered solution for 1 hour at 37° C. and then the supernatant was isolated and the amount of hemoglobin released was measured at 540 nm. % hemolysis was calculated relative to an untreated control.
Hemolytic Activity Assay:
For the determination of hemolytic activity, human blood samples were centrifuged to isolate red blood cells (RBCs), which are then washed and suspended in phosphate-buffered saline to yield a 1% (v/v) suspension. The suspension was then added to serial dilutions of peptide stocks in water in clear round-bottom polypropylene 96-well plates and the plates were incubated for 1 hour at 37° C. After incubation, the plates were centrifuged and the supernatant was isolated to determine the amount of hemoglobin released using a spectrophotometer (570 nm), according to the equation: % Hemolysis=(Treated Absorbance−Untreated Control Absorbance)/(1% Triton-X100 Treated Absorbance−Untreated Control Absorbance). The minimum hemolytic concentration (MHC) is the peptide concentration at which there is less than 1% hemoglobin release.

Row | SMILES | MIC E. coli (E. coli) | MIC B. cereus (B. cereus) | MIC S. aureus (S. aureus) | MIC P. aeruginosa (P. aeruginosa) | % Hemolysis at 25 μg/ml (human red blood cells)
1 | CCCC[C@H](NC(=O)[C@]1(C)CCCC=CCCC[C@](C)(NC(=O)[C@H](C)NC(=O)[C@H](CCC(=O)O)NC(=O)CNC(=O)[C@H](Cc2ccccc2)NC(=O)[C@H](CCCCN)NC(=O)[C@H](CCCCN)NC(=O)[C@H](C)NC(=O)[C@H](CO)NC(=O)[C@H](Cc2c[nH]cn2)NC(=O)[C@H](CC(C)C)NC(=O)[C@H](Cc2ccccc2)NC(=O)[C@H](CCCCN)NC(=O)CNC(=O)[C@@H](NC(=O)CN)[C@@H](C)CC)C(=O)N[C@@H](C(C)C)C(=O)NCC(=O)N[C@@H](CCC(=O)O)C(=O)N1)C(=O)N[C@@H](CC(N)=O)C(=O)N[C@@H](CO)C(N)=O [Mag(i + 4)15(E14E), GIGKFLHSAKKFGEAXVGEXBNS] (H-GIGKFLHSAKKFGEA[S5]VGE[S5][Nle]NS-NH2; staple 16-20) | 12.5 µg/mL | 50 µg/mL | >50 µg/mL | >50 µg/mL | 3.3%
2 | CCCC[C@H](NC(=O)[C@@H](NC(=O)[C@H](CCC(=O)O)NC(=O)CNC(=O)[C@@H](NC(=O)[C@H](Cc1ccccc1)NC(=O)[C@H](C)NC(=O)[C@]1(C)CCCC=CCCCCCC[C@@](C)(NC(=O)[C@H](CC(C)C)NC(=O)[C@H](Cc2ccccc2)NC(=O)[C@H](CCCCN)NC(=O)CNC(=O)[C@@H](NC(=O)CN)[C@@H](C)CC)C(=O)N[C@@H](CO)C(=O)N[C@@H](C)C(=O)N[C@@H](CCCCN)C(=O)N[C@@H](CCCCN)C(=O)N[C@@H](Cc2ccccc2)C(=O)NCC(=O)N1)C(C)C)[C@@H](C)CC)C(=O)N[C@@H](CC(N)=O)C(=O)N[C@@H](CO)C(N)=O [Mag(i + 7)6] (H-GIGKFL[R8]SAKKFG[S5]AFVGEI[Nle]NS-NH2; staple 7-14 (inferred); N-terminus and C-terminus assumed) | 3.1 µg/mL | 6.2 µg/mL | 6.2 µg/mL | 25 µg/mL | 47.1%
3 | CCCC[C@H](NC(=O)[C@]1(C)CCCC=CCCC[C@](C)(NC(=O)[C@H](C)NC(=O)[C@H](CCCCN)NC(=O)CNC(=O)[C@H](Cc2ccccc2)NC(=O)[C@H](CCCCN)NC(=O)[C@H](CCCCN)NC(=O)[C@H](C)NC(=O)[C@H](Cc2c[nH]cn2)NC(=O)[C@H](Cc2c[nH]cn2)NC(=O)[C@H](CC(C)C)NC(=O)[C@H](Cc2ccccc2)NC(=O)[C@H](CCCCN)NC(=O)CNC(=O)[C@@H](NC(=O)CN)[C@@H](C)CC)C(=O)N[C@@H](C(C)C)C(=O)NCC(=O)N[C@@H](CCC(=O)O)C(=O)N1)C(=O)N[C@@H](CC(N)=O)C(=O)N[C@@H](CO)C(N)=O [Mag(i + 4)15(S8H), GIGKFLHHAKKFGKAXVGEXBNS] (H-GIGKFLHHAKKFGKA[S5]VGE[S5][Nle]NS-NH2; staple 16-20) | 1.6 µg/mL | 3.1 µg/mL | 3.1 µg/mL | 3.1 µg/mL | 8.7%
4 | CCCC[C@H](NC(=O)[C@]1(C)CCCC=CCCCCCC[C@@](C)(NC(=O)[C@H](Cc2ccccc2)NC(=O)[C@H](CCCCN)NC(=O)[C@H](CCCCN)NC(=O)[C@H](C)NC(=O)[C@H](CO)NC(=O)[C@H](Cc2c[nH]cn2)NC(=O)[C@H](CC(C)C)NC(=O)[C@H](Cc2ccccc2)NC(=O)[C@H](CCCCN)NC(=O)CNC(=O)[C@@H](NC(=O)CN)[C@@H](C)CC)C(=O)N[C@@H](CCCCN)C(=O)N[C@@H](C)C(=O)N[C@@H](Cc2ccccc2)C(=O)N[C@@H](C(C)C)C(=O)NCC(=O)N[C@@H](CCC(=O)O)C(=O)N1)C(=O)N[C@@H](CC(N)=O)C(=O)N[C@@H](CO)C(N)=O [Mag(i + 7)12] (H-GIGKFLHSAKKF[R8]KAFVGE[S5][Nle]NS-NH2; staple 13-20 (inferred); N-terminus and C-terminus assumed) | 1.6 µg/mL | 3.1 µg/mL | 12.5 µg/mL | 3.1 µg/mL | 80.3%
5 | CCCC[C@H](NC(=O)[C@@H](NC(=O)[C@H](CCC(=O)O)NC(=O)CNC(=O)[C@@H](NC(=O)[C@H](Cc1ccccc1)NC(=O)[C@H](C)NC(=O)[C@H](CCCCN)NC(=O)CNC(=O)[C@H](Cc1ccccc1)NC(=O)[C@H](CCCCN)NC(=O)[C@]1(C)CCCC=CCCCCCC[C@@](C)(NC(=O)[C@@H](NC(=O)CN)[C@@H](C)CC)C(=O)N[C@@H](CCCCN)C(=O)N[C@@H](Cc2ccccc2)C(=O)N[C@@H](CC(C)C)C(=O)N[C@@H](Cc2c[nH]cn2)C(=O)N[C@@H](CO)C(=O)N[C@@H](C)C(=O)N1)C(C)C)[C@@H](C)CC)C(=O)N[C@@H](CC(N)=O)C(=O)N[C@@H](CO)C(N)=O [Mag(i + 7)2] (H-GI[R8]KFLHSA[S5]KFGKAFVGEI[Nle]NS-NH2; staple 3-10 (inferred); N-terminus and C-terminus assumed) | 3.1 µg/mL | 6.2 µg/mL | 12.5 µg/mL | 12.5 µg/mL | 69.3%
6 | CCCC[C@H](NC(=O)[C@@H](NC(=O)[C@H](CCC(=O)O)NC(=O)CNC(=O)[C@@H](NC(=O)[C@H](Cc1ccccc1)NC(=O)[C@H](C)NC(=O)[C@H](CCCCN)NC(=O)[C@]1(C)CCCC=CCCCCCC[C@@](C)(NC(=O)[C@H](Cc2ccccc2)NC(=O)[C@H](CCCCN)NC(=O)CNC(=O)[C@@H](NC(=O)CN)[C@@H](C)CC)C(=O)N[C@@H](Cc2c[nH]cn2)C(=O)N[C@@H](CO)C(=O)N[C@@H](C)C(=O)N[C@@H](CCCCN)C(=O)N[C@@H](CCCCN)C(=O)N[C@@H](Cc2ccccc2)C(=O)N1)C(C)C)[C@@H](C)CC)C(=O)N[C@@H](CC(N)=O)C(=O)N[C@@H](CO)C(N)=O [Mag(i + 7)5] (H-GIGKF[R8]HSAKKF[S5]KAFVGEI[Nle]NS-NH2; staple 6-13 (inferred); N-terminus and C-terminus assumed) | 3.1 µg/mL | 3.1 µg/mL | 6.2 µg/mL | 3.1 µg/mL | 87.0%

Continued, in another order:

Row | MIC E. coli (E. coli) | MIC B. cereus (B. cereus) | MIC S. aureus (S. aureus) | MIC P. aeruginosa (P. aeruginosa) | SMILES | % Hemolysis at 25 μg/ml (human red blood cells)
7 | 3.1 µg/mL | 50 µg/mL | >50 µg/mL | 25 µg/mL | CCCC[C@H](NC(=O)[C@]1(C)CCCC=CCCC[C@](C)(NC(=O)[C@H](C)NC(=O)[C@H](CCCCN)NC(=O)[C@@H](CCCCN)NC(=O)[C@H](Cc2ccccc2)NC(=O)[C@H](CCCCN)NC(=O)[C@H](CCCCN)NC(=O)[C@H](C)NC(=O)[C@H](CO)NC(=O)[C@H](Cc2c[nH]cn2)NC(=O)[C@H](CC(C)C)NC(=O)[C@H](Cc2ccccc2)NC(=O)[C@H](CCCCN)NC(=O)CNC(=O)[C@@H](NC(=O)CN)[C@@H](C)CC)C(=O)N[C@@H](C(C)C)C(=O)NCC(=O)N[C@@H](CCC(=O)O)C(=O)N1)C(=O)N[C@@H](CC(N)=O)C(=O)N[C@@H](CO)C(N)=O [Mag(i + 4)15(G13k)] (H-GIGKFLHSAKKF[dK]KA[S5]VGE[S5][Nle]NS-NH2; staple 16-20) | 2.1%
8 | 3.1 µg/mL | >50 µg/mL | >50 µg/mL | 12.5 µg/mL | CCCC[C@H](NC(=O)[C@]1(C)CCCC=CCCC[C@](C)(NC(=O)[C@H](C)NC(=O)[C@H](CCCCN)NC(=O)CNC(=O)[C@H](CCCCN)NC(=O)[C@H](CCCCN)NC(=O)[C@H](CCCCN)NC(=O)[C@H](C)NC(=O)[C@H](CO)NC(=O)[C@H](Cc2c[nH]cn2)NC(=O)[C@H](CC(C)C)NC(=O)[C@H](Cc2ccccc2)NC(=O)[C@H](CCCCN)NC(=O)CNC(=O)[C@@H](NC(=O)CN)[C@@H](C)CC)C(=O)N[C@@H](C(C)C)C(=O)NCC(=O)N[C@@H](CCC(=O)O)C(=O)N1)C(=O)N[C@@H](CC(N)=O)C(=O)N[C@@H](CO)C(N)=O [Mag(i + 4)15(F12K), GIGKFLHSAKKKGKAXVGEXBNS] (H-GIGKFLHSAKKKGKA[S5]VGE[S5][Nle]NS-NH2; staple 16-20) | 2.0%
9 | 1.6 µg/mL | 6.2 µg/mL | 6.2 µg/mL | 3.1 µg/mL | CCCC[C@H](NC(=O)[C@]1(C)CCCC=CCCC[C@](C)(NC(=O)[C@H](C)NC(=O)[C@H](CCCCN)NC(=O)[C@@H](C)NC(=O)[C@H](Cc2ccccc2)NC(=O)[C@H](CCCCN)NC(=O)[C@H](CCCCN)NC(=O)[C@H](C)NC(=O)[C@H](CO)NC(=O)[C@H](Cc2c[nH]cn2)NC(=O)[C@H](CC(C)C)NC(=O)[C@H](Cc2ccccc2)NC(=O)[C@H](CCCCN)NC(=O)CNC(=O)[C@@H](NC(=O)CN)[C@@H](C)CC)C(=O)N[C@@H](C(C)C)C(=O)NCC(=O)N[C@@H](CCC(=O)O)C(=O)N1)C(=O)N[C@@H](CC(N)=O)C(=O)N[C@@H](CO)C(N)=O [Mag(i + 4)15(G13a)] (H-GIGKFLHSAKKF[dA]KA[S5]VGE[S5][Nle]NS-NH2; staple 16-20) | 4.3%
